Experimental data reported in patent publication US20060069132A1, “Azolecarboxamide herbicides” (priority 2004, published 2006).

Experiments:
[1] = test system: corn; assay: Test B pre-/postemergence herbicide test; format: in vivo, Zea mays; settings: for Plant response rating, Corn: preemergence; for Corn plant response rating: postemergence, visual rating, scale 0 (no effect) to 100 (complete control)
In short: (§1)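 Response was scored visually 13 to 15 days after treatment against untreated greenhouse controls, 0 meaning no effect and 100 complete control. Formulations (solvent mixture plus surfactant) went onto soil after planting, onto foliage of 1- to 4-leaf plants, and onto 2-leaf plants in a flooded paddy set including rice and barnyardgrass.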

[2] = test system: giant foxtail; assay: Test B pre-/postemergence herbicide test; format: in vivo, Setaria faberi; settings: for Plant response rating, Foxtail, Giant: preemergence; for Foxtail, Giant plant response rating: postemergence, visual rating, scale 0 (no effect) to 100 (complete control)
In short: as §1

[3] = test system: large crabgrass; assay: Test B pre-/postemergence herbicide test; format: in vivo, Digitaria sanguinalis; settings: for Plant response rating, Crabgrass, Large: preemergence; for Crabgrass, Large plant response rating: postemergence, visual rating, scale 0 (no effect) to 100 (complete control)
In short: as §1

[4] = test system: pigweed; assay: Test B pre-/postemergence herbicide test; format: in vivo, Amaranthus retroflexus; settings: for Plant response rating, Pigweed: preemergence; for Pigweed plant response rating: postemergence, visual rating, scale 0 (no effect) to 100 (complete control)
In short: as §1

[5] = test system: lambsquarters; assay: Test B pre-/postemergence herbicide test; format: in vivo, Chenopodium album; settings: for Plant response rating, Lambsquarters: preemergence; for Lambsquarters plant response rating: postemergence, visual rating, scale 0 (no effect) to 100 (complete control)
In short: as §1

[6] = test system: barnyardgrass; assay: Test B pre-/postemergence herbicide test; format: in vivo, Echinochloa crus-galli; settings: for Plant response rating, Barnyardgrass: preemergence; for Barnyardgrass plant response rating: postemergence, visual rating, scale 0 (no effect) to 100 (complete control)
In short: (§2)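 Flooded paddy rice and barnyardgrass were treated at the 2-leaf stage; upland plantings received compound either on sown seed or on 1- to 4-leaf seedlings. All were kept 13–15 days in a greenhouse and scored visually, 0–100, relative to untreated plants.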

[7] = test system: cocklebur; assay: Test B pre-/postemergence herbicide test; format: in vivo, Xanthium strumarium; settings: for Plant response rating, Cocklebur: preemergence; for Cocklebur plant response rating: postemergence, visual rating, scale 0 (no effect) to 100 (complete control)
In short: as §2

[8] = test system: wheat; assay: Test B postemergence herbicide test; format: in vivo, Triticum aestivum; design: key to Wheat plant response rating: 0 = no effect, 100 = complete control; settings: postemergence, 500 g ai/ha; visual rating, scale 0 (no effect) to 100 (complete control)
In short: (§3)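 After treating 2-leaf paddy plants or 2–18 cm postemergence plants (1 to 4 leaves) with formulated chemical, researchers kept them in a greenhouse for 13–15 days. Effects were judged visually versus controls: 0 indicates none, 100 total control.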

[9] = test system: velvetleaf; assay: Test B pre-/postemergence herbicide test; format: in vivo, Abutilon theophrasti; settings: for Plant response rating, Velvetleaf: preemergence; for Velvetleaf plant response rating: postemergence, visual rating, scale 0 (no effect) to 100 (complete control)
In short: as §1

[10] = test system: blackgrass; assay: Test B postemergence herbicide test; format: in vivo, Alopecurus myosuroides; settings: postemergence, visual rating, scale 0 (no effect) to 100 (complete control)
In short: as §3

[11] = test system: morningglory; assay: Test B pre-/postemergence herbicide test; format: in vivo, Ipomoea coccinea; settings: for Plant response rating, Morningglory: preemergence; for Morningglory plant response rating: postemergence, visual rating, scale 0 (no effect) to 100 (complete control)
In short: as §2

[12] = test system: Surinam grass; assay: Test B pre-/postemergence herbicide test; format: in vivo, Urochloa decumbens; settings: for Plant response rating, Surinam Grass: preemergence; for Surinam Grass plant response rating: postemergence, visual rating, scale 0 (no effect) to 100 (complete control)
In short: as §1

[13] = test system: small flower umbrella sedge; assay: Test B flooded paddy test; format: in vivo, Cyperus difformis; settings: 1000 g ai/ha, visual rating, scale 0 to 100 (0 no effect, 100 complete control), 13 to 15 days
In short: as §3

[14] = test system: wild oat; assay: Test B postemergence herbicide test; format: in vivo, Avena fatua; settings: postemergence, visual rating, scale 0 (no effect) to 100 (complete control)
In short: as §3

[15] = 500 g ai/ha, visual rating 0-100, 0 no effect, 100 complete control
[16] = 125 g ai/ha, 0 to 100 scale, 0 is no effect, 100 is complete control

CCNC(=O)c1cccc(NC(=O)c2cc(C(C)(C)C)nn2CC)n1 [Compound 144]
Plant response rating, Corn [1, 15]: 10
Corn plant response rating ([1]; 125 g ai/ha): 20
Corn plant response rating ([1]; 500 g ai/ha): 30
Plant response rating, Corn [1, 16]: 10
Plant response rating, Foxtail, Giant [2, 15]: 100
Foxtail, Giant plant response rating ([2]; 125 g ai/ha): 40
Foxtail, Giant plant response rating ([2]; 500 g ai/ha): 90
Plant response rating, Foxtail, Giant [2, 16]: 100
Plant response rating, Crabgrass, Large [3, 15]: 100
Crabgrass, Large plant response rating ([3]; 125 g ai/ha): 30
Crabgrass, Large plant response rating ([3]; 500 g ai/ha): 100
Plant response rating, Crabgrass, Large [3, 16]: 80
Plant response rating, Pigweed [4, 15]: 100
Pigweed plant response rating ([4]; 125 g ai/ha): 100
Pigweed plant response rating ([4]; 500 g ai/ha): 100
Plant response rating, Pigweed [4, 16]: 100
Plant response rating, Lambsquarters [5, 15]: 100
Lambsquarters plant response rating ([5]; 125 g ai/ha): 90
Lambsquarters plant response rating ([5]; 500 g ai/ha): 90
Plant response rating, Lambsquarters [5, 16]: 100
Plant response rating, Barnyardgrass [6, 15]: 100
Barnyardgrass plant response rating ([6]; 125 g ai/ha): 70
Barnyardgrass plant response rating ([6]; 500 g ai/ha): 80
Plant response rating, Barnyardgrass [6, 16]: 90
Plant response rating, Cocklebur [7, 15]: 20
Cocklebur plant response rating ([7]; 125 g ai/ha): 30
Cocklebur plant response rating ([7]; 500 g ai/ha): 100
Plant response rating, Cocklebur [7, 16]: 10
Wheat plant response rating [8]: 30
Plant response rating, Velvetleaf [9, 15]: 100
Velvetleaf plant response rating ([9]; 125 g ai/ha): 80
Velvetleaf plant response rating ([9]; 500 g ai/ha): 100
Plant response rating, Velvetleaf [9, 16]: 100
Blackgrass plant response rating ([10]; 125 g ai/ha): 20
Blackgrass plant response rating ([10]; 500 g ai/ha): 60
Plant response rating, Morningglory [11, 15]: 100
Morningglory plant response rating ([11]; 125 g ai/ha): 50
Morningglory plant response rating ([11]; 500 g ai/ha): 80
Plant response rating, Morningglory [11, 16]: 100
Plant response rating, Surinam Grass [12, 15]: 100
Surinam Grass plant response rating ([12]; 125 g ai/ha): 60
Surinam Grass plant response rating ([12]; 500 g ai/ha): 90
Plant response rating, Surinam Grass [12, 16]: 60
Sedge, Umbrella plant response rating [13]: 90
Oat, Wild plant response rating ([14]; 125 g ai/ha): 20
Oat, Wild plant response rating ([14]; 500 g ai/ha): 50

C#CCNC(=O)c1cccc(NC(=O)c2cc(C(C)(C)C)nn2CC)n1 [Compound 147]
Plant response rating, Corn [1, 15]: 10
Corn plant response rating ([1]; 125 g ai/ha): 10
Corn plant response rating ([1]; 500 g ai/ha): 30
Plant response rating, Corn [1, 16]: 10
Plant response rating, Foxtail, Giant [2, 15]: 100
Foxtail, Giant plant response rating ([2]; 125 g ai/ha): 30
Foxtail, Giant plant response rating ([2]; 500 g ai/ha): 40
Plant response rating, Foxtail, Giant [2, 16]: 70
Plant response rating, Crabgrass, Large [3, 15]: 100
Crabgrass, Large plant response rating ([3]; 125 g ai/ha): 20
Crabgrass, Large plant response rating ([3]; 500 g ai/ha): 70
Plant response rating, Crabgrass, Large [3, 16]: 90
Plant response rating, Pigweed [4, 15]: 100
Pigweed plant response rating ([4]; 125 g ai/ha): 80
Pigweed plant response rating ([4]; 500 g ai/ha): 90
Plant response rating, Pigweed [4, 16]: 100
Plant response rating, Lambsquarters [5, 15]: 100
Lambsquarters plant response rating ([5]; 125 g ai/ha): 80
Lambsquarters plant response rating ([5]; 500 g ai/ha): 90
Plant response rating, Lambsquarters [5, 16]: 90
Plant response rating, Barnyardgrass [6, 15]: 90
Barnyardgrass plant response rating ([6]; 125 g ai/ha): 20
Barnyardgrass plant response rating ([6]; 500 g ai/ha): 30
Plant response rating, Barnyardgrass [6, 16]: 70
Plant response rating, Cocklebur [7, 15]: 10
Cocklebur plant response rating ([7]; 125 g ai/ha): 0
Cocklebur plant response rating ([7]; 500 g ai/ha): 80
Plant response rating, Cocklebur [7, 16]: 0
Wheat plant response rating [8]: 20
Plant response rating, Velvetleaf [9, 15]: 80
Velvetleaf plant response rating ([9]; 125 g ai/ha): 60
Velvetleaf plant response rating ([9]; 500 g ai/ha): 60
Plant response rating, Velvetleaf [9, 16]: 30
Blackgrass plant response rating ([10]; 125 g ai/ha): 10
Blackgrass plant response rating ([10]; 500 g ai/ha): 20
Plant response rating, Morningglory [11, 15]: 30
Morningglory plant response rating ([11]; 125 g ai/ha): 0
Morningglory plant response rating ([11]; 500 g ai/ha): 30
Plant response rating, Morningglory [11, 16]: 0
Plant response rating, Surinam Grass [12, 15]: 80
Surinam Grass plant response rating ([12]; 125 g ai/ha): 20
Surinam Grass plant response rating ([12]; 500 g ai/ha): 30
Plant response rating, Surinam Grass [12, 16]: 20
Sedge, Umbrella plant response rating [13]: 90
Oat, Wild plant response rating ([14]; 125 g ai/ha): 0
Oat, Wild plant response rating ([14]; 500 g ai/ha): 30
